Measurements from patent US10406227B2, “Photoactivated molecules for light-induced modulation of the activity of electrically excitable cells and methods of using same” (University of Southern California, priority 2012, dated 2019).
“Also recorded” adds a separate entry of the source.

Experiments:
[1] = system: INS cells; assay: Whole cell patch clamp, current-clamp membrane potential under blue light; type: cell-based, rat; conditions: for light-induced increase in membrane potential (depolarization): 10 μM ~2 min preincubation, 488 nm
Procedure: Membrane potential was monitored using whole cell patch clamp in current-clamp mode. Cultured cells (INS and HEK293) were plated on a glass-bottomed culture dishes 1-3 days prior to recording. Cells were incubated in standard extracellular solution with or without 10 μM RubpyC17 compound for approximately 1.5-2 minutes, then washed and incubated with standard extracellular solution without additional supplementation, or with 2-5 mM ascorbate, 100 μM sodium ferrocyanide, or 100-200 μM potassium ferricyanide, as indicated. The chamber was transferred to the microscope stage. Extracellular solution consisted of 140 mM NaCl, 2.8 mM KCl, 10 mM HEPES, 1 mM MgCl2, 2 mM CaCl2, 10 mM glucose, pH adjusted to 7.3, and osmolarity adjusted to 300-310. Conventional whole-cell patch clamp recordings were performed with an EPC-9 amplifier and Pulse software (HEKA Electronics). Pipette electrodes of 1.8-3.5 Mohm were fire polished before use. Intracellular solution consisted of: 145 mM KCl, 10 mM NaCl, 1 mM MgCl2, 1 mM EGTA, 2 mM ATP, 0.3 mM GTP and 10 mM HEPES, pH adjusted to 7.3 and osmolarity adjusted to 290-300 mOsm. To monitor changes in membrane voltage/potential, cells were patch clamped in current-clamp mode. Access resistances were in the range of 3-8 Mohm. Using Pulse, membrane potentials were recorded before, during and after illumination by the argon ion laser at 488 nm with an irradiance value of 0.458 mE s^−1 m^−2 or by a xenon lamp source through a 470/40 nm bandpass excitation filter with an irradiance value of 0.480 mE s^−1 m^−2. […]
Initial attempts were tied to INS and HEK cells, both cells that are not excitable under normal conditions (INS cells were maintained in low glucose <3 mM to prevent action potentials). […] To monitor the plasma membrane potential, the cells were patch-clamped in whole-cell configuration in current-clamp mode and membrane voltages were recorded while illuminating the cell at 488 nm (0.46-0.48 mE s^−1 m^−2), though other wavelengths are useful, depending on the embodiment.

[2] = system: RCS rats; assay: Pupillary light reflex after intravitreal injection; type: in vivo, rat
From the text: FIG. 16 depicts the papillary light response in RCS rats.
This finding was reproduced in 3 of 3 RCS rats injected with Rubpy-C17, and in 2 of 2 control (sham injection) RCS rats.

[3] = system: chromaffin cells; assay: Cell-attached membrane perforation test (capacitive charging transient); type: cell-based, mouse; conditions: 18 μM in patch pipette; 10 minutes after gigaseal formation
From the text: FIGS. 5A-5H depict data from various experiments related to characteristics of RubpyC17-loaded cells. […] Inset images shown to the right of trace confirmed proper integration of RubpyC17 in patched cells. FIGS. 5C-5E show the light-induced action potential firing in chromaffin cells was not due to biophysical changes in voltage-gated ion channels as there were no significant changes in current-voltage relationships (C-D) nor in steady-state activation curve (E) in RubpyC17-loaded chromaffin cells before (open circle) or during ([…]) light illumination. […] Peak inward currents from each stimulation jump were plotted against corresponding stimulating voltages (n=6). […] Data from representative cell is shown (n=5). […] Currents resulting from capacitor-like behavior of chromaffin cell membranes during hyperpolarizing jumps to −85 mV from a resting membrane potential of −80 mV were recorded 5 min following giga-seal formation for amphoterecin B (bottom trace) or 10 min following giga-seal formation for RubpyC17 (top trace).
Finally, to test whether illumination of RubpyC17 incorporated in cell membranes causes nonspecific membrane poration or other damage, 18 μM RubpyC17 was loaded inside a patch pipette and attached to a cell (gigaseal formation) in the cell-attached configuration. […]

[4] = system: leech ganglion neurons; assay: Ex vivo leech ganglion neuron recording; type: cell-based, Hirudo verbana; conditions: ex vivo ganglia
Procedure: Adult leeches Hirudo verbana will be obtained from Niagara Medical Leeches, Inc. (Westbury, N.Y., USA). Groups (20-30) of animals will be kept in glass aquaria with artificial pond water (36 mg/L Instant Ocean salts; Aquarium Systems, Mentor Ohio), in a temperature-controlled room at 16° C. and a 12:12 h light:dark cycle. At the time of experiments, leeches will weigh 1-3 g. Before dissection, the leech will be anesthetized in ice-cold leech saline. Leech saline has the following composition (in mM per liter): NaCl-115, KCl-4, CaCl2-1.8, MgCl2-2, HEPES-10, D-Glucose-5 (Sigma-Aldrich, USA). Individual ganglia will be dissected from the mid-body segments M6-M12, and pinned down in Sylgard-filled dissection box. Medial dorsal longitudinal incision will be made and the blood will be flushed away. Connective tissue and the blood vessel overlaying the ganglion chain will be incised. Dissected ganglia will be transferred to a Petri dish, pinned down in paraffin with six stainless steel pins (dorsal side up). PVNs will be microinjected into the extracellular space of the ganglion with a glass micropipette. Intracellular recording will be performed by penetrating the Retzius neurons with sharp glass electrodes (20-30 MOhm) filled with 3M potassium acetate. […] Neuronal firing will be recorded before and after the injections.

[5] = system: HEK293T cells; assay: Voltage-clamp membrane current during illumination; type: cell-based, human; conditions: voltage-clamp at approximately −80 mV
Procedure: To examine whether light-activated RubpyC17 can directly interact and open or block endogenous ion channels, HEK293T cells were preincubated with RubpyC17, and patch-clamped in a voltage-clamp configuration. Voltage-clamp configuration allowed the cells to be clamped at a potential where most voltage-gated ion channels are closed (approximately −80 mV). […] The current-voltage relationship (FIGS. 5C, D) as well as the steady-state voltage-dependent activation curves of RubpyC17-treated chromaffin cells in voltage-clamp mode before and during light illumination (FIG. 5E).

Substance: [Ru(bpy)2(bpy-C17)](PF6)2 [RubpyC17]
- light-induced increase in membrane potential (depolarization) ([1]; 2 mM ascorbate): 15.9 ± 4.6 mV
- light-induced increase in membrane potential (depolarization) ([1]; absence of ascorbate): 9.8 ± 4.5 mV
- light-triggered depolarization with non-permeating ions ([1]; NMDG for sodium, cesium for potassium, ascorbate present): still persisted
- pupillary light reflex time ([2]; injected eye): < 3 s
- pupillary light reflex ([2]; injected eye vs non-injected eye): vigorous pupillary light reflex was observed; also recorded: pupil constricts
- capacitive charging transient (membrane perforation) [3]: an increase in the capacitive charging transient was not detected
- light-induced action potential firing [4]: respond to illumination by firing action potentials; also recorded: light-induced increases in action potential firing
- light-induced changes in membrane current [5]: did not exhibit light-induced changes in membrane current
